# Laboratory results from US20020091086A1, “Peptides that block viral infectivity and methods of use thereof” (priority 1999, published 2002).
# Peptide text beside a SMILES is read from it.
# Key:
# [1] = acid stability in 50 mM KCl and 0.1M HCl by TLC; type: physicochemical; conditions: up to 24 hours
# Protocol: Because an oral administration of a pharmaceutical comprising a small peptide is desired, the acid stability of small peptides was assessed by incubating ^14C-labelled GPG-NH2 in a solution of 50 mM KCl and 0.1M HCl for various time periods. After acid hydrolysis, the radiolabeled tripeptide was analyzed by thin layer chromatography (TLC) and the HPTLC plate was developed with 25% methanol: 25%isopropanol: 15% butanol: 35% (0.1N HOAc and 0.1N NaOAc).
# SF162 strain of HIV-1 = test: antiviral activity of plasma of rats fed GPG-NH2 on infected PBMC, p24; type: cell-based; conditions: rat plasma diluted 1/5
# Protocol: For the assessment of biologically active GPG-NH2 in the plasma of animals fed the small peptide, plasma samples were prepared from blood obtained from the rats of the four week toxicology study the day after the last feeding. The plasma samples were diluted ⅕ in RPMI medium and were adminstered to PBMC infected with the SF162 strain of HIV-1, as described above. Viral infectivity was then monitored at seven, eleven, and fourteen days post infection by detecting the amount of p24 in the supernatent using a commercially available detection assay. (Abbott). […] In some cases, the administration of as little as 10 μM GPG-NH2 provided a sufficient concentration of small peptide in the plasma to enable the inhibition of HIV-1 replication. The percent reduction was calculated as in Table 6. The results from these experiments established that small peptides described herein can be maintained at concentrations in the body of an animal that are effective at inhibiting HIV replication.
# [2] = storage stability of capsules; type: physicochemical; conditions: Five-hundred milligram capsules; stored at 4° C.
# Source text: Compositions of the peptide agents suitable for gastrointestinal administration include, but not limited to, pharmaceutically acceptable powders, pills or liquids for ingestion and suppositories for rectal administration. Due to the most common routes of HIV infection and the ease of use, gastrointestinal administration, particularly oral, is the preferred embodiment of the present invention. […] As previously shown in other virus-host systems, specific antiviral activity of small peptides can be detected in serum after oral administration. (Miller et al., Appl. Microbiol., 16:1489 (1968)). Since small peptides apparently evade degradation by the patient's digestive system, they are ideal for oral administration.
# recombinant gp120 = target: T1, recombinant gp120 (Human immunodeficiency virus type 1 group M subtype B, UniProt P03375); test: dialysis-based binding assay with 14C-GPG-NH2, gp120; design: species or system HIV-1; conditions: dialysis 2 days at 4° C. against 27.5 μM 14C-GPG-NH2; buffer 1.816
# T1 construct: recombinant proteins p24 and gp120 (gifts from the AIDS program, NCIB); purchased AIDS program, NCIB (gift, not bought)
# Protocol: A dialysis-based binding assay was conducted using a dialysis membrane with a pore size of less than 10 kD. (Slide-A-Lyzer, Pierce). Fifty microliters of a 10 μM stock of the recombinant proteins p24 and gp120 (gifts from the AIDS program, NCIB) and BSA (Sigma) were introduced into separate dialysis membranes and the proteins were dialyzed at 4° C. for 2 days against a 500 ml solution composed of 150 mM NaCl and 50 mM Tris-HCl, pH 7.4 buffer and 27.5 μM of ^14C-GPG-NH2 (Amersham Ltd. UK). Subsequently, ten or five microliter aliquots of the dialyzed p24, gp120, and BSA were removed and mixed with 3 ml of ReadySafe (Beckman) in a scintillation vial. The C^14 was then detected by scintillation counting.
# [3] = Exp. 1, day 7, Feeding GPG 10 (mg/ml)
# [4] = Exp. 1, day 7, Feeding GPG 30 (mg/ml)
# [5] = Exp. 1, day 7, Feeding GPG 100 (mg/ml)
# [6] = Exp. 1, day 14, Feeding GPG 10 (mg/ml)
# [7] = Exp. 1, day 14, Feeding GPG 30 (mg/ml)
# [8] = Exp. 1, day 14, Feeding GPG 100 (mg/ml)
# [9] = Exp. 2, day 7, Feeding GPG 10 (mg/ml)
# [10] = Exp. 2, day 7, Feeding GPG 30 (mg/ml)
# [11] = Exp. 2, day 7, Feeding GPG 100 (mg/ml)
# [12] = Exp. 2, day 14, Feeding GPG 10 (mg/ml)
# [13] = Exp. 2, day 14, Feeding GPG 30 (mg/ml)
# [14] = Exp. 2, day 14, Feeding GPG 100 (mg/ml)
# [15] = Exp. 3, day 14, Feeding GPG 10 (mg/ml)
# [16] = Exp. 3, day 14, Feeding GPG 30 (mg/ml)
# [17] = Exp. 3, day 14, Feeding GPG 100 (mg/ml)
# [18] = Exp. 3, day (number not given), Feeding GPG 10 (mg/ml)
# [19] = Exp. 3, day (number not given), Feeding GPG 30 (mg/ml)
# [20] = Exp. 3, day (number not given), Feeding GPG 100 (mg/ml)
# [21] = Exp. 4, day 11, Feeding GPG 10 (mg/ml)
# [22] = Exp. 4, day 11, Feeding GPG 30 (mg/ml)
# [23] = Exp. 4, day 11, Feeding GPG 100 (mg/ml)
# [24] = Exp. 5, day 7, Feeding GPG 10 (mg/ml)
# [25] = Exp. 5, day 7, Feeding GPG 30 (mg/ml)
# [26] = Exp. 5, day 7, Feeding GPG 100 (mg/ml)
compound,measurement,setting,value
"NCC(=O)N1CCC[C@H]1C(=O)NCC(N)=O [GPG-NH2, glycyl-prolyl-glycine amide] (H-Gly-Pro-Gly-NH2)",TLC mobility after acid exposure,[1],did not affect the mobility
same,% reduction,SF162 strain of HIV-1; [3],82.8%
same,p24,SF162 strain of HIV-1; [3],93.3 pg/mL
same,% reduction,SF162 strain of HIV-1; [4],95.6%
same,p24,SF162 strain of HIV-1; [4],24.0 pg/mL
same,% reduction,SF162 strain of HIV-1; [5],67.8%
same,p24,SF162 strain of HIV-1; [5],174.7 pg/mL
same,% reduction,SF162 strain of HIV-1; [6],92.8%
same,p24,SF162 strain of HIV-1; [6],1636 pg/mL
same,% reduction,SF162 strain of HIV-1; [7],95.9%
same,p24,SF162 strain of HIV-1; [7],938 pg/mL
same,% reduction,SF162 strain of HIV-1; [8],59.4%
same,p24,SF162 strain of HIV-1; [8],9211 pg/mL
same,% reduction,SF162 strain of HIV-1; [9],31.9%
same,p24,SF162 strain of HIV-1; [9],219.2 pg/mL
same,% reduction,SF162 strain of HIV-1; [10],39.6%
same,p24,SF162 strain of HIV-1; [10],194.3 pg/mL
same,% reduction,SF162 strain of HIV-1; [11],46.1%
same,p24,SF162 strain of HIV-1; [11],173.5 pg/mL
same,% reduction,SF162 strain of HIV-1; [12],0%
same,p24,SF162 strain of HIV-1; [12],4760.8 pg/mL
same,% reduction,SF162 strain of HIV-1; [13],12.3%
same,p24,SF162 strain of HIV-1; [13],3574.4 pg/mL
same,% reduction,SF162 strain of HIV-1; [14],45.9%
same,p24,SF162 strain of HIV-1; [14],2203.7 pg/mL
same,% reduction,SF162 strain of HIV-1; [15],11.6%
same,p24,SF162 strain of HIV-1; [15],6700.6 pg/mL
same,% reduction,SF162 strain of HIV-1; [16],9.1%
same,p24,SF162 strain of HIV-1; [16],6893.0 pg/mL
same,% reduction,SF162 strain of HIV-1; [17],0%
same,p24,SF162 strain of HIV-1; [17],7578.4 pg/mL
same,% reduction,SF162 strain of HIV-1; [18],0%
same,p24,SF162 strain of HIV-1; [18],255.6 pg/mL
same,% reduction,SF162 strain of HIV-1; [19],41.7%
same,p24,SF162 strain of HIV-1; [19],107.3 pg/mL
same,% reduction,SF162 strain of HIV-1; [20],47.3%
same,p24,SF162 strain of HIV-1; [20],96.9 pg/mL
same,% reduction,SF162 strain of HIV-1; [21],29.8%
same,p24,SF162 strain of HIV-1; [21],170 pg/mL
same,% reduction,SF162 strain of HIV-1; [22],0%
same,p24,SF162 strain of HIV-1; [22],487.4 pg/mL
same,% reduction,SF162 strain of HIV-1; [23],78.6%
same,p24,SF162 strain of HIV-1; [23],51.7 pg/mL
same,% reduction,SF162 strain of HIV-1; [24],73.9%
same,p24,SF162 strain of HIV-1; [24],79.6 pg/mL
same,% reduction,SF162 strain of HIV-1; [25],0%
same,p24,SF162 strain of HIV-1; [25],439.3 pg/mL
same,% reduction,SF162 strain of HIV-1; [26],80.3%
same,p24,SF162 strain of HIV-1; [26],60 pg/mL
same,stability on storage,[2],≥ 12 months
same,radioactive GPG-NH2 associated with gp120,recombinant gp120,1.745 μCi/ml
